ChEMBL document CHEMBL1201862, “PubChem BioAssay data set” (2004)
The source made the active and inactive calls.

Legend:
[1] = CAL PDZ domain peptide-binding inhibitors, dose response, biochemical, fluorescence polarization, untagged CAL PDZ, cherry-pick, set 2 (AID 602254); format: functional
[2] = target: FAD-linked sulfhydryl oxidase ALR (Homo sapiens, UniProt P55789); experiment: inhibitors of human ALR sulfhydryl oxidase, dose response, biochemical, H2O2 detection, luminescence, cherry-pick (AID 493248)
[3] = system: HT-1080; experiment: cytotoxicity in HT1080 fibrosarcoma cells, cell-based, fluorescence readout (AID 620); format: functional; settings: Homo sapiens
[4] = cytotoxicity toward NIH3T3 fibroblasts, dose response, counter-screen, cell-based, ATP luminescence, mouse fibroblasts (AID 2010); format: functional;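 note: cells exposed to compound for about 90 hours before reading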
[5] = growth suppression of beta-catenin-knockout colon cells, dose response, cell-based, HCT116, human colon tumor (AID 1045); format: functional;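 note: HCT116 colon tumor cells with beta catenin knocked out; cells exposed to compound for 60 hours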
[6] = cytotoxicity in HEK-293T cells, dose response, cytotoxicity control for BCR NF-kB inhibitor project, luminescence, B-cell screen hits (AID 489021); format: functional, cell-based;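 note: HEK-293T cells carrying an NF-kB luciferase reporter; cells exposed to compound for about 14 hours before viability readout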
[7] = cytotoxicity in HPDE-C7 cells, cell-based, fluorescence, HTS (AID 430); format: functional; settings: Homo sapiens
[8] = cytotoxicity in KRAS-transformed pancreatic duct cells, primary screen, cell-based, fluorescence, HTS (AID 431); format: functional; settings: Homo sapiens;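 note: cell line used: HPDE-C7K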
[9] = inhibitors of intracellular T. cruzi replication, confirmation, NIH3T3 host cells, beta-gal luminescence (AID 2044); format: functional, cell-based;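 note: intracellular parasites grown in NIH/3T3 mouse fibroblasts as host cells; luminescent beta-galactosidase reporter signal from transgenic T. cruzi replicating inside host cells; inhibitors lower the luminescence signal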
[10] = target: Glucose-6-phosphate 1-dehydrogenase (Homo sapiens, UniProt P11413); experiment: human G6PD enzyme inhibitors, dose response, selectivity assay for P. falciparum G6PD inhibitor project, biochemical, fluorescence (AID 504792); format: functional
[11] = target: Luciferin 4-monooxygenase (Photinus pyralis, UniProt P08659); experiment: Counter Screen for Luciferase-based Assay Positives. [Related pubchem assays: 620, 618, 411 ]
[12] = target: Hepatocyte nuclear factor 4-alpha (Homo sapiens, UniProt P41235); format: functional, cell-based;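 note: biochemical luminescence-based dose-response counterscreen measuring inhibition of HNF4 dimerization, run alongside a screen for blockers of ABHD5–perilipin-5 interaction; split luciferase complementation of HNF4 fusion proteins in cell lysate measuring dimerization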
[13] = growth suppression of PTEN-null colon cells, dose response, cell-based, HCT116 PTEN knockout (AID 1047); format: functional;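 note: HCT116 colon tumor cells with PTEN knocked out; cells exposed to compound for 60 hours before readout; potency for loss of cell viability measured by luminescence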
[14] = target: Interleukin-1 receptor-associated kinase 4 (Homo sapiens, UniProt Q9NWZ3); format: functional
[15] = target: Mitogen-activated protein kinase kinase kinase kinase 4 (Homo sapiens, UniProt O95819); format: functional
[16] = target: Glycogen synthase kinase-3 beta (Homo sapiens, UniProt P49841); format: functional;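 note: value comes from a broad kinome profiling panel, with GSK3B as the panel member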
[17] = target: Homeodomain-interacting protein kinase 2 (Homo sapiens, UniProt Q9H2X6); format: functional;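 note: measured within a kinome-wide kinase profiling panel, HIPK2 being one panel member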
[18] = target: Cell division cycle 7-related protein kinase (Homo sapiens, UniProt O00311); format: functional;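 note: value obtained from a kinome-wide kinase panel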
[19] = target: Serine/threonine-protein kinase pim-1 (Homo sapiens, UniProt P11309); format: functional
[20] = target: cAMP-dependent protein kinase catalytic subunit alpha (Homo sapiens, UniProt P17612); format: functional
[21] = system: CHO-K1; experiment: (§1) Counterscreen for antagonists of the orexin 1 receptor (OX1R; HCRTR1): Homogeneous time resolved fluorescence (HTRF)-based cell-based dose response assay to identify antagonists of the parental CHO-K1 cell line. [Related pubchem assays (depositor defined):AID434989, AID435008, AID463079, AID485270, AID492963, AID492964, AID492965, AID493232, AID504699, AID504701]; format: functional; settings: Cricetulus griseus
[22] = target: T1, Orexin/Hypocretin receptor type 1 (Homo sapiens, UniProt O43613); experiment: Homogeneous Time Resolved Fluorescence (HTRF)-based cell-based high throughput dose response assay for antagonists of the orexin 1 receptor (OX1R; HCRTR1). [Related pubchem assays (depositor defined):AID434989, AID435008, AID463079, AID485270, AID492963, AID492964, AID492965, AID493232, AID504717, AID504718]; format: functional
T1 sequence (O43613 whole entry): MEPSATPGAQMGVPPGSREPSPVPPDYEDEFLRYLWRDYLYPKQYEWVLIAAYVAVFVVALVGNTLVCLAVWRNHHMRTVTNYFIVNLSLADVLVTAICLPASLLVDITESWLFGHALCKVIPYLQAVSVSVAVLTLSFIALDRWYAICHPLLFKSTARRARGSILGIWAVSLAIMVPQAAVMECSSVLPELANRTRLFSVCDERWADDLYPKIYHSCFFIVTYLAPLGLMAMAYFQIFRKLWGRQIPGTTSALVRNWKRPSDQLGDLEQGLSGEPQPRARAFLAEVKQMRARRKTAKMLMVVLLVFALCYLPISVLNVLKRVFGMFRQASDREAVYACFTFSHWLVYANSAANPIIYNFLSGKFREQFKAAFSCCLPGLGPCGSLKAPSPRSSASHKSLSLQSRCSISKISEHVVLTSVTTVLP

[23] = target: T2, Orexin receptor type 2 (Homo sapiens, UniProt O43614); experiment: Counterscreen assay for antagonists of the orexin 1 receptor (OX1R; HCRTR1): Fluorescence-based cell-based dose response assay for antagonists of the orexin 2 receptor (OX2R; HCRTR2), run by assay provider.; format: functional
T2 sequence (O43614 whole entry): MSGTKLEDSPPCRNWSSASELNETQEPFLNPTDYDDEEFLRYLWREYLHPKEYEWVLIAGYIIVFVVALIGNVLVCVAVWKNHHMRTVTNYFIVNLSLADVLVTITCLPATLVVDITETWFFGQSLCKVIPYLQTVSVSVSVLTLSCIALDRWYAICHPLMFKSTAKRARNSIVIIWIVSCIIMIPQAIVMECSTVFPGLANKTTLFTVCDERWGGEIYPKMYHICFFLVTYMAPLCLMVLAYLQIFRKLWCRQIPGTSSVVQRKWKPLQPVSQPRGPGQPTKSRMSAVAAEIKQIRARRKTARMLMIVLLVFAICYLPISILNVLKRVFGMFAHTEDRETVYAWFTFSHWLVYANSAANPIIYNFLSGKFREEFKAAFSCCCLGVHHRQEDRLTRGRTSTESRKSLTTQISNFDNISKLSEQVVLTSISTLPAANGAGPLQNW

[24] = as §1, with “Fluorescence-based” for “Homogeneous time resolved fluorescence (HTRF)-based”, “cell-based high throughput” for “cell-based”, “CHO” for “CHO-K1”; format: functional
[25] = target: T2, Orexin receptor type 2; experiment: Counterscreen assay for antagonists of the orexin 1 receptor (OX1R; HCRTR1): Homogeneous Time Resolved Fluorescence (HTRF)-based cell-based dose response assay for antagonists of the orexin 2 receptor (OX2R; HCRTR2), run by assay provider.; format: functional
[26] = target: T1, Orexin/Hypocretin receptor type 1; experiment: Fluorescence-based cell-based high throughput dose response assay for antagonists of the orexin 1 receptor (OX1R; HCRTR1). [Related pubchem assays (depositor defined):AID434989, AID435008, AID463079, AID485270, AID492963, AID492964, AID492965, AID493232, AID504717, AID504718]; format: functional
[27] = target: Melanin-concentrating hormone receptor 1 (Homo sapiens, UniProt Q99705); experiment: Late-stage fluorescence-based counterscreen for antagonists of the G-protein coupled receptor 7 (GPR7): cell-based dose response assay to identify antagonists of the melanin-concentrating hormone receptor 1 (MCHR1) Set 5.; format: functional
[28] = target: T3, Neuropeptides B/W receptor type 1 (Homo sapiens, UniProt P48145); experiment: GPR7 antagonist potency, late-stage follow-up, cell-based, fluorescence, dose response, set 5 (AID 588566); format: functional
T3 sequence (P48145 whole entry): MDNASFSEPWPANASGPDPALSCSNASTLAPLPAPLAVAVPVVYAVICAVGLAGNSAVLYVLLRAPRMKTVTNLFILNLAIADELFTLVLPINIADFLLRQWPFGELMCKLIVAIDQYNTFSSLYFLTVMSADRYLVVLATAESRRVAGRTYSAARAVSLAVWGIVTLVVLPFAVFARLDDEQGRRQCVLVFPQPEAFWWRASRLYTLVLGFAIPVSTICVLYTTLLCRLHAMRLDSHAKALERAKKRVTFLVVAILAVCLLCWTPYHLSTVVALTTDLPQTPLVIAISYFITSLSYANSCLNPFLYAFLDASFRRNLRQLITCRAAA

[29] = target: Mitogen-activated protein kinase 13 (Homo sapiens, UniProt O15264); format: functional
[30] = target: Proto-oncogene tyrosine-protein kinase Src (Homo sapiens, UniProt P12931); format: functional;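 note: SRC entry within a kinome-wide kinase profiling panel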
[31] = target: Tyrosine-protein kinase SYK (Homo sapiens, UniProt P43405); format: functional

Chain of Glucose-6-phosphate 1-dehydrogenase (P11413 whole entry): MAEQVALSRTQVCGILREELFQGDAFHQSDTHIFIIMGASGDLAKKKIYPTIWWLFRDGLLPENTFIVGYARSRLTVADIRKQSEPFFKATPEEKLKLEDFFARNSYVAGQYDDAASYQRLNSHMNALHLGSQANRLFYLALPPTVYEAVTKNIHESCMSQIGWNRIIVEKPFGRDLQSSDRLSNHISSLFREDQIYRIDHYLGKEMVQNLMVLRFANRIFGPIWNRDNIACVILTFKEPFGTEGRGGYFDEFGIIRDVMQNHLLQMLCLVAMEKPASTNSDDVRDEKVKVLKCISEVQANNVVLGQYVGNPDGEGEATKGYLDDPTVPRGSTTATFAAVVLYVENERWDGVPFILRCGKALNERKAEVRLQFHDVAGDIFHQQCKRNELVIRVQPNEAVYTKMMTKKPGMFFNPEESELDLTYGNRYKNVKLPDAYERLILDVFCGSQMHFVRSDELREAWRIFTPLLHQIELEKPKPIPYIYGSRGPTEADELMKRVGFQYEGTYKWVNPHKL
Chain of Melanin-concentrating hormone receptor 1 (Q99705 whole entry): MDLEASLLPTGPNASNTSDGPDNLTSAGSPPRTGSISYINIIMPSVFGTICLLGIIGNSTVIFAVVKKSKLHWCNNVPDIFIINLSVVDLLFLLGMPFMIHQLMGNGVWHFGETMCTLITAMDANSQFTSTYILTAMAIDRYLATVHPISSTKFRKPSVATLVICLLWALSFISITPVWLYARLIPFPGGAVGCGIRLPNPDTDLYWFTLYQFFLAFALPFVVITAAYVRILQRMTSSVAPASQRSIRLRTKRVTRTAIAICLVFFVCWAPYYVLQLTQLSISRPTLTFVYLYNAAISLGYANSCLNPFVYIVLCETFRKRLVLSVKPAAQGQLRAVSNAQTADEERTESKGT
Chain of Cell division cycle 7-related protein kinase (O00311 whole entry): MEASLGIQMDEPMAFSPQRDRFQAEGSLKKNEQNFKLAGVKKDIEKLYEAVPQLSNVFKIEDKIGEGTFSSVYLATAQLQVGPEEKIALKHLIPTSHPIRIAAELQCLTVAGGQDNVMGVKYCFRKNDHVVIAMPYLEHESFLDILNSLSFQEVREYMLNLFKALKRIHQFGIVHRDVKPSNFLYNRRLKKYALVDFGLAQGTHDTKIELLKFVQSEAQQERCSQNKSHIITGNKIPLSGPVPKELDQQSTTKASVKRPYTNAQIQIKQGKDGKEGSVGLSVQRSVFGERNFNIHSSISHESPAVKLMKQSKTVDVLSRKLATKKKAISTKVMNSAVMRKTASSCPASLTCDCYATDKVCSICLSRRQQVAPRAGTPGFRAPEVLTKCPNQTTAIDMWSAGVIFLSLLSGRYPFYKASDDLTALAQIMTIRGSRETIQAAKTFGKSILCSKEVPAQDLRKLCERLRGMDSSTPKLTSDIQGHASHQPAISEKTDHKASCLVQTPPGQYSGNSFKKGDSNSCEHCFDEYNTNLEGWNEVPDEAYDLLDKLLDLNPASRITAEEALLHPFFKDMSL
Chain of Hepatocyte nuclear factor 4-alpha (P41235 whole entry, the tested form may be a part): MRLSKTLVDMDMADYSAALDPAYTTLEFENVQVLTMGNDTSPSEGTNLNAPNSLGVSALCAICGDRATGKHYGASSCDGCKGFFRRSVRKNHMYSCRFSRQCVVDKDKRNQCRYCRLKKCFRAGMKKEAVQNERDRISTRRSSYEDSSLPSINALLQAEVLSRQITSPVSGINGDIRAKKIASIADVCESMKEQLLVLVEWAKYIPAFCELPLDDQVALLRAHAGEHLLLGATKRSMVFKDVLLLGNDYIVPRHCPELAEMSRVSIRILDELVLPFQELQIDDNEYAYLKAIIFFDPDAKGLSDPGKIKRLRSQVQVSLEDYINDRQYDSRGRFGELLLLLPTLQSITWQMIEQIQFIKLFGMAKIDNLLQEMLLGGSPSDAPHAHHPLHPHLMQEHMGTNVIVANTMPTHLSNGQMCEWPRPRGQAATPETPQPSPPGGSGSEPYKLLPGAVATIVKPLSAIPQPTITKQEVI
Chain of Serine/threonine-protein kinase pim-1 (P11309 whole entry): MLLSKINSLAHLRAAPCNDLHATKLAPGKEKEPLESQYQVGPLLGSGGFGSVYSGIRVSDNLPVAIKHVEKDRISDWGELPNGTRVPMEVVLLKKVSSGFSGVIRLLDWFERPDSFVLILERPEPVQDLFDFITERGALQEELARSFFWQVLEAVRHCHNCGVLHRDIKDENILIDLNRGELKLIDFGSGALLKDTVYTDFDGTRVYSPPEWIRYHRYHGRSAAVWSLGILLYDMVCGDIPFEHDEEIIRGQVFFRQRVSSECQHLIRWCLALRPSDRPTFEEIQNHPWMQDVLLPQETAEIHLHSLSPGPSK
Chain of Homeodomain-interacting protein kinase 2 (Q9H2X6 whole entry): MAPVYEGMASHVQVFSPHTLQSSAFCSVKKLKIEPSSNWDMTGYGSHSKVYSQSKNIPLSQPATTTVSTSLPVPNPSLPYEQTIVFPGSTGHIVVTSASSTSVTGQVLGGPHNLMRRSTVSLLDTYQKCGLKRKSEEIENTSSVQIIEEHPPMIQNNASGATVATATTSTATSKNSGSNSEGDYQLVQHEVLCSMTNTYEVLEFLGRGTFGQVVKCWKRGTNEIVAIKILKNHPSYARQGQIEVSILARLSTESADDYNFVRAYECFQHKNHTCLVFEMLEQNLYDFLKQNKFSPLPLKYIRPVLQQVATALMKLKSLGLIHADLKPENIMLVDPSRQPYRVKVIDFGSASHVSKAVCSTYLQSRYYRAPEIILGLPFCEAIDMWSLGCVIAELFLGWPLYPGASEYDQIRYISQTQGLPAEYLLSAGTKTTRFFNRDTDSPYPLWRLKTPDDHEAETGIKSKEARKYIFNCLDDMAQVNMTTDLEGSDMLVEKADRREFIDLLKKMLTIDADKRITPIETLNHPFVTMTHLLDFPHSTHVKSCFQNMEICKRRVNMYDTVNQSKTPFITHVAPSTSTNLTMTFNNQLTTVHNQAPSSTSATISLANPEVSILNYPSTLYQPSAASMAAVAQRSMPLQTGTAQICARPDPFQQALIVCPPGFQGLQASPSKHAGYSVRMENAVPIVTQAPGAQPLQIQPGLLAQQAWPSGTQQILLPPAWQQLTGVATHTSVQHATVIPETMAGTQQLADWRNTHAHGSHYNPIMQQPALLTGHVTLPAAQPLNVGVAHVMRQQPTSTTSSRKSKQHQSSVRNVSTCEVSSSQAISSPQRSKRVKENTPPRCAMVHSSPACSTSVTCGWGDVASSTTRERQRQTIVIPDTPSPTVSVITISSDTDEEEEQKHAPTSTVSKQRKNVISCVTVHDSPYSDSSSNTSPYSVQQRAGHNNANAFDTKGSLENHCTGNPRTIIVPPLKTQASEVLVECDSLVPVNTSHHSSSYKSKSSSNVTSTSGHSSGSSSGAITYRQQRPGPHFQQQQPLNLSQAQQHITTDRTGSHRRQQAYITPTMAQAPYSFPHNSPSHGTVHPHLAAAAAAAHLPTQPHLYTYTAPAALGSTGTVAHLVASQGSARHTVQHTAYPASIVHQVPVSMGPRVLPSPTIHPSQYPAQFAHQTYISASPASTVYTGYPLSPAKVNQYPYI
Chain of Mitogen-activated protein kinase kinase kinase kinase 4 (O95819 whole entry): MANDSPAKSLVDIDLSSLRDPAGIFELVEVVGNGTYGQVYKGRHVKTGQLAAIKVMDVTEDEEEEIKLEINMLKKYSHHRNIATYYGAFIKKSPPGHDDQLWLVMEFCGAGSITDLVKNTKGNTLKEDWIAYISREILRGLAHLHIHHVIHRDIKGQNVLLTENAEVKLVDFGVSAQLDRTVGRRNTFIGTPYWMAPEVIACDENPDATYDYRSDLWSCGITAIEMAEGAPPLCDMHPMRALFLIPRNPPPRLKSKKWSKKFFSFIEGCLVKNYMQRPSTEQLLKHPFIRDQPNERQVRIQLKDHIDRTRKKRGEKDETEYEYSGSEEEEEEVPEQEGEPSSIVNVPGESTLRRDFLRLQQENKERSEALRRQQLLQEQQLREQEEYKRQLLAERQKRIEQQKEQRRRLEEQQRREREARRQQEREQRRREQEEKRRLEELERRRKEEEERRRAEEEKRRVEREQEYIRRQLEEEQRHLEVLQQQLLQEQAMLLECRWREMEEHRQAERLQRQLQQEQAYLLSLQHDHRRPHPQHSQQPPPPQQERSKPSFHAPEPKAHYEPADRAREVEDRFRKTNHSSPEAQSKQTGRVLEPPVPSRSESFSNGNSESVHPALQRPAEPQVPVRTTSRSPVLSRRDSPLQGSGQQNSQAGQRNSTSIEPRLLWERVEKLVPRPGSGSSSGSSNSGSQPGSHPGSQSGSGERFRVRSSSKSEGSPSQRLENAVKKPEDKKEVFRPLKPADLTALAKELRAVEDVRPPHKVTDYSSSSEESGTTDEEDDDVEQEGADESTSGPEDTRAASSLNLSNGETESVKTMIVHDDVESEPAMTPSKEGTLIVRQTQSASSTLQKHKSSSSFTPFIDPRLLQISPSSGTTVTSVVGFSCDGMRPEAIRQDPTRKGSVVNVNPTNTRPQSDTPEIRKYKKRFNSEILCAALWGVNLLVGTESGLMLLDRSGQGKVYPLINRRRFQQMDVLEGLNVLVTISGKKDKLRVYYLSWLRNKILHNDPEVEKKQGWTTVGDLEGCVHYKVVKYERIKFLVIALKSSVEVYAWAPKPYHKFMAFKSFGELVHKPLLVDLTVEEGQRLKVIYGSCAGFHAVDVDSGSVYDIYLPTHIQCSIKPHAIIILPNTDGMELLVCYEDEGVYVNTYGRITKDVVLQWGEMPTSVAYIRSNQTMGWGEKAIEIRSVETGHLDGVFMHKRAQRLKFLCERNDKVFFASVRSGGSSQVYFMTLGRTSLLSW
Chain of FAD-linked sulfhydryl oxidase ALR (P55789 whole entry): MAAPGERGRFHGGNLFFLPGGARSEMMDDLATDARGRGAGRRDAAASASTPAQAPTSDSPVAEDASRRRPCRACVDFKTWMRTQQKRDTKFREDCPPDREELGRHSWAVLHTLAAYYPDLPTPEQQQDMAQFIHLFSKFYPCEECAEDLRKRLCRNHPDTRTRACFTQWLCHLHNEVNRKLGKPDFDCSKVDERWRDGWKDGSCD

In the case of `O=C(CNC(=O)c1ccc2c(c1)OCCO2)N/N=C/c1ccc(Cl)cc1`, the AC50 [1] is reported as 101 µM (active).
In the case of `CC1=CC(C)(C)Nc2ccc(OC(=O)CN3C(=O)CCC3=O)cc21`, the AC50 [2] is reported as 2.79 µM (active), the EC50 [3] is reported as > 50 µM (not active) and the EC50 [4] is reported as 8.86 µM (active). The EC50 [5] was 5.71 µM (active), the IC50 [6] was 48.4 µM (inactive) and the EC50 [7] was 7.45 µM (active). The EC50 [8] was 8.75 µM (active), the EC50 [9] was 2.93 µM (active) and the IC50 [10] was 54 µM (inactive). The EC50 [11] was 0.79 µM (active), the IC50 [12] was 9.33 µM (active) and the EC50 [13] was 8.84 µM (active).
For `Cc1n[nH]c2ccc(-c3cncc(OCCN(C)S(C)(=O)=O)c3)cc12`, the Ki [14] was 3.16 µM (active), the Ki [15] was 0.126 µM (active) and the Ki [16] was 0.398 µM (active). The Ki [17] was > 3.16 µM (inactive), the Ki [18] was 0.0126 µM (active) and the Ki [19] was 5.01 µM (active). For the same molecule, the Ki [20] was 0.631 µM (active).
In the case of `Cc1c(/C=C/C(=O)c2cccs2)cnn1C`, the IC50 [21] is reported as 35 µM (inactive), the IC50 [22] is reported as 3.97 µM (active) and the IC50 [23] is reported as > 88.8 µM (inactive). The IC50 [24] was > 49.8 µM (inactive), the IC50 [25] was > 50 µM (inactive) and the IC50 [26] was > 49.8 µM (inactive).
For `COc1ccc(Oc2c(Cl)cnn(Cc3cccc4ccccc34)c2=O)c(F)c1F`, the IC50 [27] was 2.05 µM (active) and the IC50 [28] was 0.292 µM (active).
With `Cn1cc(C=C2C(=O)Nc3cccnc32)c2ccccc21` [GW441756X] the Ki [29] was > 7.94 µM (inactive), the Ki [30] was 0.501 µM (active) and the Ki [31] was 0.501 µM (active).
